# Measurements taken from patent US20030190368A1, “METHODS OF DIAGNOSIS AND TRIAGE USING CELL ACTIVATION MEASURES” (priority 1998, published 2003).
# Columns and labels:
# neutrophils = settings: cited from earlier work
# human neutrophils = assay: Neutrophil response to fluid shear-stress in vitro; format: cell-based
# Method: In these experiments the shear-stress was kept sufficiently low (˜1 dyn/cm2) to avoid significant viscoelastic cell deformation. Fresh leukocytes from pin-pricked blood of healthy volunteers were collected in Vacutainer tubes (sodium heparin pre-treated, Becton Dickinson, Franklin Lakes, N.J.). The red blood cells were allowed to sediment at room temperature for about 30 minutes. The supernatant mixture of 1 part platelets and leukocytes was resuspended in 20 parts Plasma Lyte (Baxter Healthcare Corp., Deerfield, Ill.). Neutrophils, monocytes and lymphocytes were identified by their morphology (125× magnification). All experiments were performed within four hours following blood collection.
# 100 μl of the cell preparation was deposited into a small chamber with a transparent bottom on an inverted microscope (Leitz Diavert, Germany) with a 50× objective. […]
# Filmed neutrophils presented various responses to shear-stress. In order to quantify the results neutrophil response was divided into three categories: […]
smiles,measurement,setting,value
"CS(=O)(=O)O.CS(=O)(=O)O.N=C(N)Nc1ccc(C(=O)Oc2ccc3cc(C(=N)N)ccc3c2)cc1 [Futhan, 6-amidino-2-naphthyl p-guanidinobenzoate dimethanesulfonate]",free radical scavenging,neutrophils,does not possess any free radical scavenging effects
same,zymosan-induced chemiluminescence activation by neutrophils,neutrophils; in vitro,inhibited zymosan-induced chemiluminescence activation by neutrophils
same,effect of Futhan on neutrophil activation in shear-stress test,human neutrophils; 10 μl Futhan 0.05 and 0.13 mg/ml in 5% glucose + 10 μl pig pancreatic homogenate + 80 μl cells,slightly pro-inflammatory effect
same,complete response to shear stress of Futhan-treated neutrophils,human neutrophils; Futhan 0.05 and 0.13 mg/ml + pig pancreatic homogenate,no Futhan-treated neutrophil exhibited a complete response
